Results taken from PMC5554537 (Frontiers in Pharmacology, 2017).
Where two headings read alike, the source gives them in different places.

Experiments:
[1] = Stability in mouse plasma (QC samples); assay type: physicochemical
Excerpt: (§1) using octa-deuterated internal standards of SN30000, M13 and M14 synthesised as previously reported (Wang et al., 2012). Intra- and inter-day precision (expressed as relative standard deviation (RSD) and accuracy (expressed as percentage of the nominal value) were deter mined by analy sis of replicates (n=6) of low and high quality control (QC) samples on three different days. The lower limit of quantitation (LLOQ) was defined as the lowest concentration providing RSD and accuracy < 20%. Recovery from plasma and liver ho mogenates was tested at the three QC levels. The recoveries were evaluated by comparing extracted samples with blank extracted solutions spiked with analytes of the same amount.
(§2) Matrix effects, defined as the change in response due to the presence of other substances in the samples, were evaluated by comparing the analytes diluted into the blank plasma or liver extracted solution with that of the same stock solutions diluted in water. Three different concentration levels (low, medium and high QC) were evaluated by analysing three samples at each level. Accuracy , precision, recovery and matrix effects were all acceptable over the concentration ranges evaluated for plas ma (Supplementary Table 1) and for liver homogenates (Supplementary Table 2).
(§3) Stability of the analytes in mouse plasma (Supplementary Table 3) or liver homogenate (Supplementary Table 4) was confirmed during holding of QC samples on ice for up to 2 h under nor mal laboratory lighting, although there was a trend towards loss of SN30000 in plasma samples held in clear microcentrifuge tubes which may reflect the known photosensitivity of the compound (Gu et al., 2014). This loss was reduced by use of red microcentrifuge tubes, and eliminated by black tubes. Stability in both matrices was also confir med for one month storage at -80°C and for three freeze-thaw cycles, while MeOH-deproteinised samples w ere stable for 12 h at 4°C in the autosampler (Supplementary Tables

[2] = Stability in mouse liver homogenates (QC samples); assay type: physicochemical
Excerpt: as §1, §2, §3

[3] = i.p. SN30000 186 mg/kg
Description: (§4) M18 was quantified by absorbance detection with reference to an external standard calibration curve.
(§5) Concentration-time data were analyzed by non-compartmental analysis using Phoenix WinNonlin (ver 6.4, Build 6.4.0768 Pharsight, United States); all AUC values were extrapolated to infinity using the linear trapezoidal rule.
(§6) SN30000, M14 and M13 were quantified by LC-MS/MS using stable isotope internal standards, while M18 was quantified by absorbance detection using external standard calibration curves.

in vivo = details: NIH-III, mouse, in vivo, ip, 186 mg/kg
Description: as §4, §5, §6

[4] = plasma deproteinised in 3 vol MeOH, 12 h autosampler at 4°C, nominal SN30000 0.5, M14 0.25, M13 0.1 µM
[5] = plasma deproteinised in 3 vol MeOH, 12 h autosampler at 4°C, nominal SN30000 5, M14 2.5, M13 1 µM
[6] = plasma deproteinised in 3 vol MeOH, 12 h autosampler at 4°C, nominal SN30000 50, M14 25, M13 10 µM
[7] = plasma, 1 month at -80°C, nominal SN30000 5, M14 2.5, M13 1 µM
[8] = plasma, 1 month at -80°C, nominal SN30000 50, M14 25, M13 10 µM
[9] = plasma, 1 h on ice, black vial, nominal SN30000 0.5, M14 0.25, M13 0.1 µM
[10] = plasma, 1 h on ice, black vial, nominal SN30000 5, M14 2.5, M13 1 µM
[11] = plasma, 1 h on ice, black vial, nominal SN30000 50, M14 25, M13 10 µM
[12] = plasma, 1 h on ice, clear vial, nominal SN30000 0.5, M14 0.25, M13 0.1 µM
[13] = plasma, 1 h on ice, clear vial, nominal SN30000 5, M14 2.5, M13 1 µM
[14] = plasma, 1 h on ice, clear vial, nominal SN30000 50, M14 25, M13 10 µM
[15] = plasma, 1 h on ice, red vial, nominal SN30000 0.5, M14 0.25, M13 0.1 µM
[16] = plasma, 1 h on ice, red vial, nominal SN30000 5, M14 2.5, M13 1 µM
[17] = plasma, 1 h on ice, red vial, nominal SN30000 50, M14 25, M13 10 µM
[18] = plasma, 2 h on ice, black vial, nominal SN30000 0.5, M14 0.25, M13 0.1 µM
[19] = plasma, 2 h on ice, black vial, nominal SN30000 5, M14 2.5, M13 1 µM
[20] = plasma, 2 h on ice, black vial, nominal SN30000 50, M14 25, M13 10 µM
[21] = plasma, 2 h on ice, clear vial, nominal SN30000 0.5, M14 0.25, M13 0.1 µM
[22] = plasma, 2 h on ice, clear vial, nominal SN30000 5, M14 2.5, M13 1 µM
[23] = plasma, 2 h on ice, clear vial, nominal SN30000 50, M14 25, M13 10 µM
[24] = plasma, 2 h on ice, red vial, nominal SN30000 0.5, M14 0.25, M13 0.1 µM
[25] = plasma, 2 h on ice, red vial, nominal SN30000 5, M14 2.5, M13 1 µM
[26] = plasma, 2 h on ice, red vial, nominal SN30000 50, M14 25, M13 10 µM
[27] = plasma, three freeze-thaw cycles, nominal SN30000 0.5, M14 0.25, M13 0.1 µM
[28] = plasma, three freeze-thaw cycles, nominal SN30000 5, M14 2.5, M13 1 µM
[29] = plasma, three freeze-thaw cycles, nominal SN30000 50, M14 25, M13 10 µM
[30] = liver homogenate deproteinised in 3 vol MeOH, 12 h autosampler at 4°C, nominal SN30000 0.5, M14 0.25, M13 0.1 µM
[31] = liver homogenate deproteinised in 3 vol MeOH, 12 h autosampler at 4°C, nominal SN30000 5, M14 2.5, M13 1 µM
[32] = liver homogenate deproteinised in 3 vol MeOH, 12 h autosampler at 4°C, nominal SN30000 50, M14 25, M13 10 µM
[33] = liver homogenate, 1 month at -80°C, nominal SN30000 0.5, M14 0.25, M13 0.1 µM
[34] = liver homogenate, 1 month at -80°C, nominal SN30000 5, M14 2.5, M13 1 µM
[35] = liver homogenate, 1 month at -80°C, nominal SN30000 50, M14 25, M13 10 µM
[36] = liver homogenate, 1h on ice, clear tubes, nominal SN30000 0.5, M14 0.25, M13 0.1 µM
[37] = liver homogenate, 1h on ice, clear tubes, nominal SN30000 5, M14 2.5, M13 1 µM
[38] = liver homogenate, 1h on ice, clear tubes, nominal SN30000 50, M14 25, M13 10 µM
[39] = liver homogenate, 2h on ice, nominal SN30000 0.5, M14 0.25, M13 0.1 µM
[40] = liver homogenate, 2h on ice, nominal SN30000 5, M14 2.5, M13 1 µM
[41] = liver homogenate, 2h on ice, nominal SN30000 50, M14 25, M13 10 µM
[42] = liver homogenate, three freeze-thaw cycles, nominal SN30000 0.5, M14 0.25, M13 0.1 µM
[43] = liver homogenate, three freeze-thaw cycles, nominal SN30000 5, M14 2.5, M13 1 µM
[44] = liver homogenate, three freeze-thaw cycles, nominal SN30000 50, M14 25, M13 10 µM
[45] = HT29 tumour, tumour-bearing mice
[46] = liver, HT29 tumour-bearing mice

`[O-][n+]1nc(CCCN2CCOCC2)[n+]([O-])c2cc3c(cc21)CCC3` [SN30000, 3-(3-Morpholinopropyl)-7,8-dihydro-6H-indeno[5,6-e][1,2,4]triazine 1,4-dioxide] gave a Bias [1, 4] of -0.12%, a Measured conc [1, 4] of 0.50 µM and a Bias [1, 5] of -0.22%. The Measured conc [1, 5] was 4.99 µM, the Bias [1, 6] was 7.93% and the Measured conc [1, 6] was 53.97 µM. For the same molecule, the Measured conc ([1]; plasma, 1 month at -80°C, nominal SN30000 0.5, M14 0.25, M13 0.1 µM) was 0.48 µM, the Bias [1, 7] was 1.44% and the Measured conc [1, 7] was 4.92 µM. For the same molecule, the Bias [1, 8] was 2.04%, the Measured conc [1, 8] was 53.90 µM and the Bias [1, 9] was -0.80%. The Measured conc [1, 9] was 0.50 µM, the Bias [1, 10] was -7.17% and the Measured conc [1, 10] was 4.64 µM. The Bias [1, 11] was 5.03%, the Measured conc [1, 11] was 52.5 µM and the Bias [1, 12] was -7.83%. The Measured conc [1, 12] was 0.46 µM, the Bias [1, 13] was -7.91% and the Measured conc [1, 13] was 4.60 µM. It also gave a Bias [1, 14] of -7.21%, a Measured conc [1, 14] of 46.39 µM and a Bias [1, 15] of -3.33%. The Measured conc [1, 15] was 0.48 µM, the Bias [1, 16] was -7.29% and the Measured conc [1, 16] was 4.64 µM. For the same molecule, the Bias [1, 17] was -4.85%, the Measured conc [1, 17] was 47.57 µM and the Bias [1, 18] was 1.31%. It also gave a Measured conc [1, 18] of 0.51 µM, a Bias [1, 19] of 0.11% and a Measured conc [1, 19] of 5.01 µM. The Bias [1, 20] was 2.32%, the Measured conc [1, 20] was 51.16 µM and the Bias [1, 21] was -14.4%. The Measured conc [1, 21] was 0.43 µM, the Bias [1, 22] was -12.3% and the Measured conc [1, 22] was 4.38 µM. The Bias [1, 23] was -14.9%, the Measured conc [1, 23] was 42.53 µM and the Bias [1, 24] was -10.09%. The Measured conc [1, 24] was 0.45 µM, the Bias [1, 25] was -12.57% and the Measured conc [1, 25] was 4.37 µM. The Bias [1, 26] was -8.13%, the Measured conc [1, 26] was 45.94 µM and the Bias [1, 27] was 0.56%. It also gave a Measured conc [1, 27] of 0.50 µM, a Bias [1, 28] of -2.87% and a Measured conc [1, 28] of 4.86 µM. It also gave a Bias [1, 29] of 6.72%, a Measured conc [1, 29] of 53.36 µM and a Bias [2, 30] of 3.36%. It also gave a Measured conc [2, 30] of 0.52 µM, a Bias [2, 31] of 2.86% and a Measured conc [2, 31] of 5.14 µM. For the same molecule, the Bias [2, 32] was 6.75%, the Measured conc [2, 32] was 53.37 µM and the Bias [2, 33] was 1.98%. The Measured conc [2, 33] was 0.52 µM, the Bias [2, 34] was 4.40% and the Measured conc [2, 34] was 4.77 µM. For the same molecule, the Bias [2, 35] was 4.71%, the Measured conc [2, 35] was 47.06 µM and the Bias [2, 36] was 2.46%. It also gave a Measured conc [2, 36] of 0.51 µM, a Bias [2, 37] of 4.72% and a Measured conc [2, 37] of 5.24 µM. For the same molecule, the Bias [2, 38] was 6.87%, the Measured conc [2, 38] was 53.43 µM and the Bias [2, 39] was -3.26%. The Measured conc [2, 39] was 0.48 µM, the Bias [2, 40] was 2.72% and the Measured conc [2, 40] was 5.14 µM. The Bias [2, 41] was 1.20%, the Measured conc [2, 41] was 50.60 µM and the Bias [2, 42] was -10.74%. For the same molecule, the Measured conc [2, 42] was 0.45 µM, the Bias [2, 43] was -8.29% and the Measured conc [2, 43] was 4.59 µM. For the same molecule, the Bias [2, 44] was 4.78%, the Measured conc [2, 44] was 52.39 µM and the “AUC (extrapolated to infinity)” value [3, 45] was 111 µmol·h/kg. The Cmax [3, 45] was 69.9 ± 12.1 µmol/kg, the “AUC (extrapolated to infinity)” value ([3]; brain, non-tumour-bearing mice) was 158 µmol·h/kg and the Cmax ([3]; brain, non-tumour-bearing mice) was 217 ± 12 µmol/kg. The “AUC (extrapolated to infinity)” value [3, 46] was 164 µmol·h/kg, the Cmax [3, 46] was 172 ± 8 µmol/kg and the “AUC (extrapolated to infinity)” value ([3]; liver, non-tumour-bearing mice) was 147 µmol·h/kg. For the same molecule, the Cmax ([3]; liver, non-tumour-bearing mice) was 164 ± 38 µmol/kg, the “AUC (extrapolated to infinity)” value ([3]; plasma, HT29 tumour-bearing mice) was 159 µmol·h/kg and the “AUC (extrapolated to infinity)” value ([3]; plasma, non-tumour-bearing mice) was 156 µmol·h/kg. It also gave a Tmax (in vivo) of no more than 5 min, a Cmax (in vivo; i.p. SN30000 186 mg/kg, plasma, HT29 tumour-bearing mice) of 217 ± 18 µM and a Cmax (in vivo; i.p. SN30000 186 mg/kg, plasma, non-tumour-bearing mice) of 210 ± 9 µM. The half-life (in vivo; Elimination half-life, i.p. SN30000 186 mg/kg, all tissues except tumors) was roughly 30 min, the half-life (in vivo; Terminal T1/2, i.p. SN30000 186 mg/kg, HT29 tumour, tumour-bearing mice) was 36.2 min and the half-life (in vivo; Terminal T1/2, i.p. SN30000 186 mg/kg, brain, non-tumour-bearing mice) was 26.4 min. It also gave a half-life (in vivo; Terminal T1/2, i.p. SN30000 186 mg/kg, liver, HT29 tumour-bearing mice) of 35.7 min, a half-life (in vivo; Terminal T1/2, i.p. SN30000 186 mg/kg, liver, non-tumour-bearing mice) of 44.3 min and a half-life (in vivo; Terminal T1/2, i.p. SN30000 186 mg/kg, plasma, HT29 tumour-bearing mice) of 33.9 min. It also gave a half-life (in vivo; Terminal T1/2, i.p. SN30000 186 mg/kg, plasma, non-tumour-bearing mice) of 32.7 min.
